PubChem BioAssay AID248 (DTP/NCI, 2004)
Toxic doses and inconclusive results are not listed. Rule as the data show it: active = T/C of 150% or more; inactive = T/C below 125%.

System: L1210 leukemia ip in BDF1 mice, survival T/C
Test: NCI In Vivo Anticancer Drug Screen. Data for tumor model L1210 Leukemia (intraperitoneal) in B6D2F1 (BDF1) mice
Conditions: endpoint: mean survival time, higher = longer survival
Method in brief: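 Ratio derived from survival: compound-dosed mice over vehicle-dosed mice, all bearing a transplantable tumor.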

[1] = dose: 100.0 mg/kg/injection, schedule: Q04DX003 (ip), vehicle: Klucel (hydroxypropylcellulose) (HPC)
[2] = dose: 50.0 mg/kg/injection, schedule: Q01DX001 (ip), vehicle: carboxymethylcellulose (CMC)
[3] = dose: 100.0 mg/kg/injection, schedule: Q01DX001 (ip), vehicle: carboxymethylcellulose (CMC)
[4] = dose: 200.0 mg/kg/injection, schedule: Q01DX001 (ip), vehicle: carboxymethylcellulose (CMC)
[5] = dose: 400.0 mg/kg/injection, schedule: Q01DX001 (ip), vehicle: carboxymethylcellulose (CMC)
[6] = dose: 100.0 mg/kg/injection, schedule: Q01DX009 (ip), vehicle: saline with Tween-80
[7] = dose: 200.0 mg/kg/injection, schedule: Q01DX009 (ip), vehicle: saline with Tween-80
[8] = dose: 400.0 mg/kg/injection, schedule: Q01DX009 (ip), vehicle: saline with Tween-80
[9] = dose: 100.0 mg/kg/injection, schedule: Q01DX001 (ip), vehicle: saline
[10] = dose: 200.0 mg/kg/injection, schedule: Q01DX001 (ip), vehicle: saline
[11] = dose: 400.0 mg/kg/injection, schedule: Q01DX001 (ip), vehicle: saline
[12] = dose: 100.0 mg/kg/injection, schedule: Q01DX009 (ip), vehicle: saline
[13] = dose: 100.0 mg/kg/injection, schedule: Q04DX003 (ip), vehicle: saline
[14] = dose: 200.0 mg/kg/injection, schedule: Q01DX009 (ip), vehicle: saline
[15] = dose: 200.0 mg/kg/injection, schedule: Q04DX003 (ip), vehicle: saline
[16] = dose: 400.0 mg/kg/injection, schedule: Q01DX009 (ip), vehicle: saline
[17] = dose: 400.0 mg/kg/injection, schedule: Q04DX003 (ip), vehicle: saline
[18] = dose: 100.0 mg/kg/injection, schedule: Q01DX001 (ip), vehicle: Klucel (hydroxypropylcellulose) (HPC)
[19] = dose: 200.0 mg/kg/injection, schedule: Q01DX001 (ip), vehicle: Klucel (hydroxypropylcellulose) (HPC)

Measured: T/C

NC(=O)SCC(=O)NNc1ccccc1
inactive: dose: 75.0 mg/kg/injection, schedule: Q01DX001 (ip), vehicle: other 90 % of control | dose: 150.0 mg/kg/injection, schedule: Q01DX001 (ip), vehicle: other 98 % of control | dose: 300.0 mg/kg/injection, schedule: Q01DX001 (ip), vehicle: other 100 % of control

CN(C)C(=O)c1ccc(O)cc1
inactive: [1] 104 % of control | dose: 200.0 mg/kg/injection, schedule: Q04DX003 (ip), vehicle: Klucel (hydroxypropylcellulose) (HPC) 92 % of control | dose: 400.0 mg/kg/injection, schedule: Q04DX003 (ip), vehicle: Klucel (hydroxypropylcellulose) (HPC) 97 % of control

COc1c2c([n+](C)c3c(OC)cccc13)OC(C(C)C)C2 (stereo not drawn)
inactive: dose: 0.5 mg/kg/injection, schedule: Q01DX009 (ip), vehicle: acetone 100 % of control | dose: 0.75 mg/kg/injection, schedule: Q01DX009 (ip), vehicle: saline 103 % of control | dose: 1.0 mg/kg/injection, schedule: Q01DX001 (ip), vehicle: saline 96 % of control | dose: 1.0 mg/kg/injection, schedule: Q01DX009 (ip), vehicle: acetone 120 % of control | dose: 1.0 mg/kg/injection, schedule: Q04DX003 (ip), vehicle: Klucel (hydroxypropylcellulose) (HPC) 97 % of control | dose: 1.0 mg/kg/injection, schedule: Q04DX003 (ip), vehicle: acetone 108 % of control | dose: 1.5 mg/kg/injection, schedule: Q01DX009 (ip), vehicle: saline 92 % of control | dose: 2.0 mg/kg/injection, schedule: Q01DX001 (ip), vehicle: saline 96 % of control | dose: 2.0 mg/kg/injection, schedule: Q04DX003 (ip), vehicle: Klucel (hydroxypropylcellulose) (HPC) 105 % of control | dose: 2.0 mg/kg/injection, schedule: Q04DX003 (ip), vehicle: acetone 119 % of control | dose: 4.0 mg/kg/injection, schedule: Q01DX001 (ip), vehicle: saline 98 % of control

Cc1cccc(N2CCNCC2)c1
inactive: dose: 6.25 mg/kg/injection, schedule: Q04DX003 (ip), vehicle: saline 93 % of control | dose: 12.5 mg/kg/injection, schedule: Q04DX003 (ip), vehicle: saline 96 % of control | dose: 25.0 mg/kg/injection, schedule: Q04DX002 (ip), vehicle: saline with Tween-80 101 % of control | dose: 25.0 mg/kg/injection, schedule: Q04DX003 (ip), vehicle: saline 102 % of control | dose: 50.0 mg/kg/injection, schedule: Q04DX002 (ip), vehicle: saline with Tween-80 92 % of control

CCCCC(C)(O)CCC (stereo not drawn)
inactive: [2] 104 % of control | [3] 101 % of control | [4] 98 % of control | [5] 89 % of control

CSCCC1NC(=O)C(C(C)=Nc2ccccc2)=C1O (stereo not drawn)
inactive: [2] 101 % of control | [3] 109 % of control | [4] 104 % of control | [5] 104 % of control

CCCCCCCCC(O)(CCCCCCC)C(=O)O (stereo not drawn)
inactive: dose: 100.0 mg/kg/injection, schedule: Q04DX002 (ip), vehicle: Klucel (hydroxypropylcellulose) (HPC) 95 % of control | dose: 200.0 mg/kg/injection, schedule: Q04DX002 (ip), vehicle: Klucel (hydroxypropylcellulose) (HPC) 117 % of control | dose: 400.0 mg/kg/injection, schedule: Q04DX002 (ip), vehicle: Klucel (hydroxypropylcellulose) (HPC) 115 % of control

CCN(CC)c1cccc(OC(=O)Nc2ccc(SC)cc2)c1
inactive: [6] 95 % of control | [7] 103 % of control | [8] 97 % of control

NC(=O)N1CC(c2ccccc2)CCc2ccccc21 (stereo not drawn)
inactive: [9] 98 % of control | [10] 108 % of control | [11] 102 % of control

CC1=CCC(C/C=N/N=C/CC2CC=C(C)C2(C)C)C1(C)C (stereo not drawn)
inactive: dose: 100.0 mg/kg/injection, schedule: Q01DX009 (sc), vehicle: olive oil, sesame oil, peanut oil 100 % of control | dose: 100.0 mg/kg/injection, schedule: Q04DX003 (sc), vehicle: olive oil, sesame oil, peanut oil 97 % of control | dose: 200.0 mg/kg/injection, schedule: Q01DX009 (sc), vehicle: olive oil, sesame oil, peanut oil 100 % of control | dose: 200.0 mg/kg/injection, schedule: Q04DX003 (sc), vehicle: olive oil, sesame oil, peanut oil 101 % of control | dose: 400.0 mg/kg/injection, schedule: Q01DX009 (sc), vehicle: olive oil, sesame oil, peanut oil 98 % of control | dose: 400.0 mg/kg/injection, schedule: Q04DX003 (sc), vehicle: olive oil, sesame oil, peanut oil 106 % of control

Nc1nnc(SCc2ccccc2)s1
inactive: dose: 100.0 mg/kg/injection, schedule: Q01DX009 (ip), vehicle: Klucel (hydroxypropylcellulose) (HPC) 92 % of control | dose: 200.0 mg/kg/injection, schedule: Q01DX009 (ip), vehicle: Klucel (hydroxypropylcellulose) (HPC) 105 % of control | dose: 400.0 mg/kg/injection, schedule: Q01DX009 (ip), vehicle: Klucel (hydroxypropylcellulose) (HPC) 97 % of control

CC1(C)/C(=C/c2ccccc2)C(=O)c2ccccc21
inactive: [12] 101 % of control | [13] 96 % of control | [14] 96 % of control | [15] 98 % of control | [16] 102 % of control | [17] 102 % of control

COc1ccc(-n2c(=O)c(N=Nc3ccccc3C)c(O)n(-c3ccc(Cl)cc3)c2=S)cc1
inactive: dose: 50.0 mg/kg/injection, schedule: Q01DX001 (ip), vehicle: Klucel (hydroxypropylcellulose) (HPC) 100 % of control | [18] 100 % of control | [19] 102 % of control

N#Cc1cn(-c2ccc(Cl)cc2)c2ncccc12
inactive: dose: 25.0 mg/kg/injection, schedule: Q01DX001 (ip), vehicle: saline 100 % of control | dose: 50.0 mg/kg/injection, schedule: Q01DX001 (ip), vehicle: saline 100 % of control | dose: 100.0 mg/kg/injection, schedule: Q01DX001 (ip), vehicle: saline with Tween-80 88 % of control | [9] 100 % of control | [10] 87 % of control | [11] 102 % of control

C=C(Cl)CN(CCCC(=O)O)c1cccc(OC)c1
inactive: [6] 89 % of control | dose: 100.0 mg/kg/injection, schedule: Q04DX003 (ip), vehicle: other 100 % of control | [7] 95 % of control | dose: 200.0 mg/kg/injection, schedule: Q04DX003 (ip), vehicle: other 98 % of control | [8] 97 % of control | dose: 400.0 mg/kg/injection, schedule: Q04DX003 (ip), vehicle: other 100 % of control

O=C1OC2CCCCC2OC1=O (stereo not drawn)
inactive: [9] 101 % of control | [10] 101 % of control

CC[CH2][Sn]([CH2]C)([c]1ccccc1)[c]1ccccc1
inactive: [18] 97 % of control | [19] 106 % of control | dose: 400.0 mg/kg/injection, schedule: Q01DX001 (ip), vehicle: Klucel (hydroxypropylcellulose) (HPC) 101 % of control

O=C1CC2C3Nc4ccccc4C3CCN2C2=C1CC(OC(=O)c1ccccc1)CC2 (stereo not drawn)
inactive: dose: 12.5 mg/kg/injection, schedule: Q01DX009 (ip), vehicle: saline sonified 96 % of control | dose: 25.0 mg/kg/injection, schedule: Q01DX009 (ip), vehicle: saline sonified 98 % of control | dose: 50.0 mg/kg/injection, schedule: Q01DX009 (ip), vehicle: saline sonified 103 % of control | [1] 95 % of control

Nc1cccnn1
inactive: [12] 99 % of control | [13] 109 % of control | [14] 99 % of control | [15] 117 % of control | [16] 103 % of control | [17] 120 % of control

CCOC(=O)c1cnc(SC)nc1N(CC)c1ccccc1
inactive: dose: 100.0 mg/kg/injection, schedule: Q01DX009 (ip), vehicle: gum acacia 105 % of control | dose: 100.0 mg/kg/injection, schedule: Q04DX003 (ip), vehicle: gum acacia 102 % of control | dose: 200.0 mg/kg/injection, schedule: Q01DX009 (ip), vehicle: gum acacia 100 % of control | dose: 200.0 mg/kg/injection, schedule: Q04DX003 (ip), vehicle: gum acacia 102 % of control | dose: 400.0 mg/kg/injection, schedule: Q01DX009 (ip), vehicle: gum acacia 102 % of control | dose: 400.0 mg/kg/injection, schedule: Q04DX003 (ip), vehicle: gum acacia 102 % of control

CS(=O)(=O)/C=C\c1ccccc1
inactive: [13] 101 % of control | [15] 95 % of control | [17] 103 % of control
